Assay results reported in patent publication US8124111B2, “Immunomodulation by altering sphingosine 1-phosphate lyase (SPL) activity” (Children's Hospital & Research Center at Oakland, priority 2005, dated 2012).

How the values were obtained:
SPL [1] = molecular target: T1, SPL (Homo sapiens, UniProt O95470); conditions: cited from earlier work
T1 sequence (O95470 1-568): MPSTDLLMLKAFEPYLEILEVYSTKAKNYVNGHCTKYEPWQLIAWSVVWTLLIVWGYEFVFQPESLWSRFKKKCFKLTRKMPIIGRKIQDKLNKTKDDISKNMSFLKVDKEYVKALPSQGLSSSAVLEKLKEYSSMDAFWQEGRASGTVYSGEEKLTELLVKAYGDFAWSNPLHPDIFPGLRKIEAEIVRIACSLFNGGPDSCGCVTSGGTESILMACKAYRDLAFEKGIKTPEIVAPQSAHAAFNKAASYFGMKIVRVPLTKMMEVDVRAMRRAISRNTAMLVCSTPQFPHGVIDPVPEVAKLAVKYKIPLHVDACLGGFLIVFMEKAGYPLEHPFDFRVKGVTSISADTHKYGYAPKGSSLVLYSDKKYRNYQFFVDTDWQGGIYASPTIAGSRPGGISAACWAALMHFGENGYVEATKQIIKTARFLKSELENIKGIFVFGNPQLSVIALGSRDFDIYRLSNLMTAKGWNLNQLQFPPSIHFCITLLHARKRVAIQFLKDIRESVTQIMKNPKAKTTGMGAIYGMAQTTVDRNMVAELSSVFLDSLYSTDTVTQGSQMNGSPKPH

[2] = tested on: human SPL luciferase reporter construct; test: SPL gene expression, human SPL luciferase reporter in HEK293 cells; type: cell-based; conditions: 0.3 μM or 3.0 μM, 24 hours
Experimental: (A) SPL gene expression. HEK293 cells were co-transfected with a human SPL luciferase reporter construct and the sea pansy luciferase reporter as a control for transfection efficiency. Twenty-four hours after transfection, cells were treated with 0.3 μM FTY720, 3.0 μM FTY720 or vehicle and incubated for another 24 hours at 37° C. Luciferase activity was then determined as a measure of expression, as described in Experimental Methods. Values shown are luciferase activity normalized to sea pansy luciferase; (B) SPL protein expression. Thymic extracts from control mice (time 0) and mice treated with FTY720 for 24 hours were evaluated for SPL protein expression by immunoblotting. Actin was used as a loading control.
SPL expression: To evaluate the effect of FTY720 and FTY720-P on SPL gene expression, HEK293 cells were treated for 30 minutes with 3 μM of either drug, followed by transfection with pSPL-BamHI, a human SPL-luciferase reporter construct. After 48 hours, reporter expression was determined by luciferase activity as described (Oskouian et al., (2005) J Biol Chem 280, 18403-18410)). Western blotting of mouse tissue extracts was performed using a 1:2000 dilution of polyclonal sera raised against the murine SPL C-terminal peptide: (NH2)—V-T-Q-G-N-Q-M-N-G-S—P—K—P—R—(COOH). [SEQ ID NO:11] […]

SPL [3] = molecular target: T1, SPL; test: FTY720-P metabolism: stability in the presence of SPL, recovery quantified by HPLC; type: biochemical; set-up: expressed in transfected cells; host or cells: HEK293 infected with adenoviral vector; conditions: for stability in the presence of SPL (amount recovered by HPLC): incubated 0-24 hours with extracts of HEK293 cells overexpressing human SPL, standard SPL reaction conditions
Experimental: (A) Twenty nanomoles of FTY720-P were incubated with SPL enzyme for 0-24 hours under standard SPL reaction conditions in the absence of dihydrosphingosine 1-phosphate substrate. At the indicated times the reaction was stopped, and FTY720-P was recovered and quantified by HPLC. (B) Twenty nanomoles of S1P were incubated with extracts from cells overexpressing SPL for 0-24 hours, or alternatively, with extracts from cells containing pcDNA3.0 vector control which had no appreciable SPL activity (PC) for 2 hours. S1P was recovered and quantified by HPLC.
FTY720-P metabolism: Whole cell extracts of HEK293 cells stably overexpressing human SPL were prepared as previously described (Reiss et al., (2004) J Biol Chem 279, 1281-1290). These extracts contained approximately 700 picomoles/mg protein/minute of SPL activity. Twenty nanomoles FTY720-P were suspended in SPL reaction buffer (Van Veldhoven et al., (1991) J Biol Chem 266, 12502-12507), and 25 microliters of whole cell extract were added to initiate the reaction. At various time points, reaction was stopped by addition of a 2 ml mixture of chloroform and methanol (2:1 v/v), 1 ml of 1M KCl, 0.1 ml concentrated HCl. Sample was mixed by vortexing and centrifuged at 1200 rpm for 5 min. […] After derivatization with OPA, the sample was injected onto the HPLC for quantification. The HPLC analysis was conducted using a Beckman (Torrance, Calif., USA) system Gold 125 solvent module with a Spectra-Physics SP8410 fluorescence detector and a C18 (2) Luna 3 μm, 75×4.6 mm column from Phenomenex (CA). […] Recovery of S1P was determined by HPLC quantitation, as described below for S1P measurements in mouse tissues.
Confirmation of FTY720-P by LCMS: Samples corresponding to FTY720-P peak identified on HPLC were evaluated by LCMS to confirm FTY720-P by mass analysis. Twenty microliters of sample were injected into the LCMS and mass spectrum scans from 300 to 500 m/z and specific ions m/Z 388 and 410 were quantified for FTY720-P. A reverse phase C18 column from Phenomenex (2.1 mm×15 cm) was used. […]

SPL [4] = molecular target: T1, SPL; test: Inhibition of SPL activity in vitro (whole cell extracts of HEK293 cells with human SPL adenoviral construct); type: biochemical; set-up: expressed in transfected cells; host or cells: HEK293 infected with adenoviral vector
Experimental: Various concentrations of FTY720 or its phosphorylated derivative (FTY720P) were incubated for 30 minutes on ice with whole cell extracts containing high SPL activity by virtue of a human SPL adenoviral expression construct. SPL activity was determined. (A) FTY720; (B) FTY720-P.
SPL enzyme assay: Tissues were homogenized by sonication in 9 volumes of ice-cold homogenization buffer (5 mM MOPS pH 7.5, 1 mM DTT, 1 mM EDTA, 0.25 M sucrose, and 5 micrograms/ml each chymostatin, leupeptin, pepstatin A and antipain). SPL assays were conducted using 50 micrograms protein per assay and radioactive [4,5 ^3H]DHS1P substrate, as described previously (Reiss et al., (2004) J Biol Chem 279, 1281-1290). For in vitro FTY720 and FTY720-P experiments, drug was incubated with whole cell extracts prepared from HEK293 cells infected with an adenoviral vector expressing human SPL. These extracts contained approximately 200 picomoles/mg protein/minute SPL activity. Drug was incubated with extracts for 30 minutes, followed by addition of extracts to reaction buffer and substrate to initiate the reaction.
Although treatment with FTY720 was associated with low (nanomolar) circulating drug levels, it was possible that local concentrations within cells and subcellular compartments may have been considerably higher, since FTY720 has been reported to be actively transported into cells by the actions of drug transporters that recognize long chain bases (Honig et al., (2003) J Clin Invest 111, 627-637).

[5] = tested on: C3H murine splenocytes and thymocytes
Experimental: Cellular Immune Functions—Mitogen Induced Lymphoproliferation: Spleen and thymus tissues were harvested from wild type C3H mice, and cell suspensions were prepared as described previously (Mishell et al., (1980) in Selected Methods in Cellular Immunology (Mishell, B., and Shiigi, S., eds), pp. 3-27, WH Freeman and Company, San Francisco). Cells were dispersed in sterile medium in 96 well microtiter plates (Falcon) at a concentration of 1×10^6 cells/ml for spleen and 5×10^6 cells/ml for thymus. […] Cell proliferation was determined after 48 and 72 hours using the Cell Titer 96 Non-Radioactive Cell Proliferation Assay from Promega (Mannheim, Germany), according to the manufacturer's instructions.

Question: Which “altering SPL activity” value (SPL [1]) does the source give for CCCCCCCCCCCCCCCC(=O)N[C@@H](CO)[C@H](O)C1=C(CCCCCCCCCCCCC)C1 [C16-cyclopropenylceramide] here?
Answer: capable of altering SPL activity

Question: Which “SPL gene expression (luciferase activity normalized to sea pansy luciferase)” value [2] does the source give for CCCCCCCCc1ccc(CC[C@](N)(CO)COP(=O)(O)O)cc1 [FTY720-P] here?
Answer: not affected

Question: And the “stability in the presence of SPL (amount recovered by HPLC)” value (SPL [3])?
Answer: remained stable for up to 24 hours

Question: And the “substrate for SPL” value (SPL [3]; standard conditions)?
Answer: did not serve as a substrate for SPL

Question: What about the “dose dependence of SPL inhibition in vitro” value (SPL [4]) of the same compound?
Answer: not dose-dependent

Question: And the “only concentration that was inhibitory to SPL activity in vitro” value (SPL [4]; 30 minutes incubation with extracts)?
Answer: 30 µM

Question: For CCCCCCCCCCCCCC1=C([C@@H](O)[C@H](CO)NC(=O)CCCCCCC)C1 [GT11, C8-cyclopropenylceramide], which “altering SPL activity” value (SPL [1]) is on record?
Answer: capable of altering SPL activity

Question: What about the “non-specific cytotoxic effects (light microscopy)” value [5] of the same compound?
Answer: negligible

Question: What about the LPS-stimulated lymphoproliferation ([5]; two different dosages, 24 hours preincubation, 1 or 10 μg/ml LPS, read after 48 and 72 hours) of the same compound?
Answer: reduced

Question: Which “stability in the presence of SPL (amount recovered by HPLC)” value (SPL [3]) does the source give for CCCCCCCCCCCCC/C=C/[C@@H](O)[C@@H](N)COP(=O)(O)O [S1P, Sphingosine-1-phosphate] here?
Answer: diminished

Question: With Cc1ncc(CO)c(C)c1O [deoxypyridoxine] as the compound, how does the “altering SPL activity” value (SPL [1]) read?
Answer: capable of altering SPL activity
